Source: patent US6403643B1, “Use of 2,5-dihydroxybenzenesulfonic derivatives for the normalization of endothelial function” (Laboratories del Dr. Esteve, S.A., priority 1997, dated 2002)

Columns and labels:
[1] = system: endothelium; test: Endothelium-dependent vascular relaxation in normal animals and animals with vitamin D2-induced vascular aging (background statement); conditions: normal animals and animals with vascular aging produced by high doses of vitamin D2
Text: This effect is observed both in normal animals and in those in which vascular aging has been produced experimentally by means of the administration of high doses of vitamin D2. This activity of calcium dobesilate, of ethamsylate and of persilate may be reflected in man by effects which are therapeutically useful. […] Rosen, “The Pharmacology of Sexual Function and Dysfunction”, edited by J. Bancroft, Elsevier Sc., 1995, cages 277-287). The normalization of the endothelial function obtained with calcium dobesilate, ethamsylate and persilate can represent an entirely novel therapeutic approach to the problem of impotence (I. Saenz de Tejada et al., N. Engl. J. Med., 1989, 320, 1025-1030), both in patients with vascular disorders with various causes (diabetes, arteriosclerosis, and the like) and in patients where only a functional disorder can be detected.

[2] = system: aortas isolated from male rabbits; test: Effect on the basal tension in aorta arteries with and without endothelium (basal tension 2 grams); type: cell-based, rabbit; conditions: concentrations between 10^−8M and 10^−4
Protocol: (§1) The studies were carried out by using the aortas isolated from male rabbits according to the techniques described by A. Quintana et al. (Europ. J. Pharmacol., 1978, 53, 113-116) and by the group from the University of Edinburgh (Pharmacological Experiments on Isolated Preparations, Edinburgh, Livingstone, 1970). The aortas isolated without the endothelium are prepared according to the technique described by R. Furchgott et al. (J. Cardiol. Pharmacol., 1984, 6, p. 336-p. 343).
2) Effect on the basal tension in the aorta arteries with and without endothelium (basal tension=2 grams).
Calcium dobesilate at concentrations between 10^−8M and 10^−4 relaxes, in a dose-dependent way, the aortas subjected to a basal tension of 2 grams. The maximum relaxation was 44% for the arteries with endothelium and 48% for the arteries without endothelium.

[3] = system: aortas isolated from male rabbits; test: Effect on the noradrenalin concentration/effect curve in aorta with and without endothelium; type: cell-based, rabbit; conditions: concentration of 10^−6M
Protocol: as §1
3) Effect on the noradrenalin concentration/effect curve.
In arteries with the intact endothelium, calcium dobesilate at a concentration of 10^−6M inhibits a 44% the contraction obtained with 10 ^−4M noradrenalin.

[4] = system: aortas originating from the treated rabbits; test: Protective effect on the endothelium: relaxation of noradrenalin-contracted aortas from rabbits with vitamin D2 overdose; type: in vivo, rabbit; conditions: 10^−6M noradrenalin, calcium dobesilate between 10^−11M and 10^−5M on the artery
Protocol: The protective effect on the endothelium with calcium dobesilate was studied in the rabbit.
To do this, the arterial endothelium in rabbits is damaged by a daily treatment with an overdose of vitamin D2 and three groups of animals are used in the study:
II—Hypervitaminosis D2+50 mg/kg/day calcium dobesilate.
The studies are carried out with arteries originating from the treated rabbits by measuring the effect on the contraction of the aorta maintained with 10^−6M noradrenalin.
Calcium dobesilate (between 10^−11M and 10^−5M) relaxes in a dose-dependent way the contraction due to noradrenalin. The least relaxation corresponds to the hypervitaminosis D2 group (group I), whereas the maximum relaxation is obtained with the aortas of the group treated with calcium dobesilate (group II).
The maximum relaxation obtained for each group was as follows: […]

[5] = system: aortas isolated from male rabbits; test: Relaxation of the contraction of isolated aorta maintained with 10^−6 M noradrenalin (in vitro); type: cell-based, rabbit; conditions: aorta contraction maintained with 10^−6 M noradrenalin; concentrations between 10^−4M and 10^−11M
Protocol: as §1
1) Effect on the contraction of the aorta maintained with 10^−6 M noradrenalin.
Calcium dobesilate relaxes the contraction of noradrenalin in a way dependent on the concentration (between 10^−4M and 10^−11M). The maximum relaxation was 70%.

## CCNCC.O=S(=O)(O)c1cc(O)ccc1O [ethamsylate, Diethylamine 2,5-dihydroxybenzenesulfonate]
[1]
  effects on the endothelium: facilitating endothelium-dependent vascular relaxation

## CCNCC.CCNCC.O=S(=O)(O)c1cc(O)c(S(=O)(=O)O)cc1O [persilate, Bis(diethylamine) 2,5-dihydroxybenzene-1,4-disulfonate]
[1]
  effects on the endothelium: facilitating endothelium-dependent vascular relaxation

## Calcium 2,5-dihydroxybenzenesulfonate [calcium dobesilate]
[2]; arteries with endothelium
  maximum relaxation of basal tension: 44%
[2]; arteries without endothelium
  maximum relaxation of basal tension: 48%
[3]; arteries with the intact endothelium
  inhibition of the contraction obtained with 10^−4M noradrenalin: 44%
[3]; arteries without endothelium
  effect on the noradrenalin concentration/effect curve: no modification of the curve
[4]; aortas of Group I (hypervitaminosis D2)
  maximum relaxation of the contraction due to noradrenalin: 52%
[4]; aortas of Group II (hypervitaminosis D2 + 50 mg/kg/day calcium dobesilate)
  maximum relaxation of the contraction due to noradrenalin: 100%
[4]; aortas of Group O (control rabbits)
  maximum relaxation of the contraction due to noradrenalin: 69%
[5]
  maximum relaxation of the contraction of noradrenalin: 70%
[1]
  effects on the endothelium: facilitating endothelium-dependent vascular relaxation
